Literature values as cited in patent publication US6555519B2, “O-glucosylated benzamide SGLT2 inhibitors and method” (Bristol-Myers Squibb Company, priority 2000, dated 2003).

Columns and labels:
human SGLT1 = biological target: T1, human SGLT1 (Homo sapiens, UniProt P13866); details: SGLT1 transporter; read-out: Km values for uptake
T1 sequence (P13866 1-664): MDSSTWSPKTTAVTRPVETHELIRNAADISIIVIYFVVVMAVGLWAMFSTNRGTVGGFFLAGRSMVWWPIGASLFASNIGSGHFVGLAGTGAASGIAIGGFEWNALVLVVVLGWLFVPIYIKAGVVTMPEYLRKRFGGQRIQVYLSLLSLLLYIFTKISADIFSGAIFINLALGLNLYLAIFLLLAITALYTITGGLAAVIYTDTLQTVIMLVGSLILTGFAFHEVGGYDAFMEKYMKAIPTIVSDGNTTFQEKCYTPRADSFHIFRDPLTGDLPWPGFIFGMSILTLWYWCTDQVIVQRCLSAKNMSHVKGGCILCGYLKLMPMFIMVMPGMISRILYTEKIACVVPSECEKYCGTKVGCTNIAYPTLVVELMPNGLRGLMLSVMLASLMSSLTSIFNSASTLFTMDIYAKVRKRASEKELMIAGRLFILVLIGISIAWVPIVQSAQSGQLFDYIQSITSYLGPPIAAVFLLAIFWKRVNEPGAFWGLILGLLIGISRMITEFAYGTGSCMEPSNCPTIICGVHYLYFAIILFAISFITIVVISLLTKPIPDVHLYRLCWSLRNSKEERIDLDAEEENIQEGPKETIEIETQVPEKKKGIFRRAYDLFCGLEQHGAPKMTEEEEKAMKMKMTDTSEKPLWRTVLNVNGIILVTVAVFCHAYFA

human SGLT2 = biological target: T2, human SGLT2 (Homo sapiens, UniProt P31639); details: SGLT2 transporter; read-out: Km values for uptake
T2 sequence (P31639 1-672): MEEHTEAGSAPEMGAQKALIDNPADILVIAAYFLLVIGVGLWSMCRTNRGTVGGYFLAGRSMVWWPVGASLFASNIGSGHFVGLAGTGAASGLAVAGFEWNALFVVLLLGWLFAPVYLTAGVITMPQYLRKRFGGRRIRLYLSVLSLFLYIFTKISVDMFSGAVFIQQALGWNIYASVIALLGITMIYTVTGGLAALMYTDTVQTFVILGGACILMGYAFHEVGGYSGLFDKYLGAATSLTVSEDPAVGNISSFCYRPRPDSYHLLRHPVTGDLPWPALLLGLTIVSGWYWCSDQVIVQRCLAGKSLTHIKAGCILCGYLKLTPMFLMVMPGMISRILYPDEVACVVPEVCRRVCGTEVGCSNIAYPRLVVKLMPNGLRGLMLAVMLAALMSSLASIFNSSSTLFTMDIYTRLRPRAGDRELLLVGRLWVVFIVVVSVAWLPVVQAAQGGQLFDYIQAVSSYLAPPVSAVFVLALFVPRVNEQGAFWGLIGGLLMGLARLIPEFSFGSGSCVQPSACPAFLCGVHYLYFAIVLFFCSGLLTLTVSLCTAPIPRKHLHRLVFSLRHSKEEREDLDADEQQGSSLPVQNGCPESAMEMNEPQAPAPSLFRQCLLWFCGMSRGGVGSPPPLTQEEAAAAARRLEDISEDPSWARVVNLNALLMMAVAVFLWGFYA

Q: Which Km (human SGLT1) does the source give for CO[C@H]1O[C@H](CO)[C@@H](O)[C@H](O)[C@H]1O [AMG, α-methyl-D-glucopyranoside] here?
A: 400 µM

Q: What about the Km (human SGLT2) of the same compound?
A: 1600 µM
